Laboratory results as given in patent publication EP2623495B1, “Positively charged water-soluble prodrugs of n-arylanthranilic acids with very fast skin penetration rate” (Techfields Biochem Co. Ltd, priority 2006, dated 2008).
≈ marks a conversion by molar mass, not a printed value. Where two headings read alike, the source gives them in different places.

Legend:
[1] = Solubility in water; conditions: for solubility: solubility in water
[2] = physchem; conditions: water
[3] = hairless, mouse, in vivo
[4] = rat, in vivo, po, 50 mg/kg/day, 21 days
[5] = taken orally; cited from earlier work
[6] = Acute toxicity, LD50 orally; conditions: mouse, in vivo, po; orally in mice; prodrugs
From the text: The acute toxicity of the prodrugs was investigated.

[7] = In vitro penetration through human skin in modified Franz cells; format: in vitro ADME; conditions: for Apparent flux values: human skin 360-400 µm, donor 30% solution (prodrugs) or 30% suspension (parent drugs) in 2mL of pH 7.4 phosphate buffer (0.2M); for diffuses through human skin times faster than the parent drug: prodrug versus mefenamic acid, meclofenamic acid, flufenamic acid, niflumic acid, or flunixin
[8] = Analgetic activity: acetic acid writhing inhibition; format: in vivo; conditions: mice; for No. of Writhings: 100 mg/kg transdermally 60 minutes before acetic acid solution intraperitoneally, control group 35.0; for rate of writhings inhibition %: 100 mg/kg transdermally 60 minutes before acetic acid solution, based on the control group
From the text: The group A is the control group. Table 1. The rate of writhings inhibition by prodrugs of arylanthranilic acids

[9] = Analgetic activity: prolongation time of the pain threshold of a mouse tail (D'Amour-Smith Method); format: in vivo, mice; conditions: 50mg/kg transdermally, mouse tails exposed to heat; Figure 3
Procedure: Analgetic activity: The prolongation time of the pain threshold of a mouse tail was determined in accordance with the D'Amour-Smith Method (J. Pharmacol. Exp. Ther., 72, 74(1941)). After 50mg/kg of these prodrugs were administered transdermally, the tails of mice were exposed to heat and the prolongation time of pain threshold was determined.
Group A is the control group. • Figure 4. The rate of swelling (%) after a carrageenin injection. […] Group A is the control group. • Figure 5.

[10] = Gastroduodenal bleeding (fecal blood) after oral administration for 21 days; conditions: rats, orally 50 mg/kg per day for 21 days
[11] = Antipyretic activity after sterilized E. coli suspension as a pyrogen; format: in vivo; conditions: rats, 100 mg/kg transdermally 2 hours after E. coli pyrogen
Procedure: Antipyretic activity: Rats received a sterilized E. coli suspension as a pyrogen. […] The body temperature of rats was taken at 90 min. intervals before and after the administration of the test compounds. Table 2. Antipyretic Activity of prodrugs of arylanthranilic acids.

[12] = In vivo penetration through the skin of intact hairless mice, plasma levels by HPLC; conditions: for peak plasma levels / time to peak levels after application of the donor systems: 20% solution in 1 mL of isopropanol on 10 cm^2 of the backs of hairless mice; for peak plasma levels: plasma levels of parent drug; for time to peak levels after application of the donor systems: transdermal; for difference in peak plasma levels, prodrugs versus parent drugs: topical application, hairless mice
[13] = J. Pharm. Sci., 82, 227(1993); cited from earlier work
[14] = cited from earlier work
[15] = parent drugs, given for comparison

Structure (SMILES) | solubility [2] [µg/mL] | peak plasma levels [3] [mg/mL] | average fecal blood [4] | time to reach peak plasma level [5] [h] | LD50 [6] [mg/kg] | solubility [1] [mg/mL] | Apparent flux values [7] [mg/cm^2/h] | diffuses through human skin times faster than the parent drug [7] [times] | No. of Writhings [8] | rate of writhings inhibition % [8] [%] | analgesic activity, prolongation time of pain threshold (in words) [9] | average fecal blood [10] | body temperature t=0 min. [11] | body temperature t=90 min. [11] | body temperature t=180 min. [11] | body temperature t=270 min. [11] | peak plasma levels [12] [mg/mL] | time to peak levels after application of the donor systems [12] [min] | difference in peak plasma levels, prodrugs versus parent drugs [12] | other results
CC(=O)O.CCN(CC)CCNC(=O)c1ccccc1Nc1cccc(C)c1C [N-diethylaminoethyl 2-[(2,3-dimethylphenyl)amino] benzoamide.AcOH] | – | – | – | – | – | – | – | – | – | – | – | – | – | – | – | – | – | – | – | solubility in water [1]: 400 mg/mL
Cc1ccc(Cl)c(Nc2ccccc2C(=O)O)c1Cl [meclofenamic acid, 2-[(2,6-dichloro-3-methylphenyl)amino]benzoic acid] | < 100 | ~0.01 | 2-4 mg of fecal blood per gram of feces | 2 to 4 | – | – | – | – | – | – | – | – | – | – | – | – | – | – | – | –
CCN(CC)CCOC(=O)c1ccccc1Nc1c(Cl)ccc(C)c1Cl [diethylaminoethyl 2-[(2,6-dichloro-3-methylphenyl)amino]benzoate.AcOH] | – | – | – | – | 1000 | > 400 | 2.0 | ~200 | 14.2 | 59 | shown analgesic activity nicely | none | 37.28±0.06 | 36.68±0.05 | 36.62±0.08 | 36.58±0.07 | ~2 | ~50 | approximately 200 times | –
CN(C)CCCC(=O)O[C@H]1CC[C@H]2[C@@H]3CCC4=CC(=O)CC[C@]4(C)[C@H]3CC[C@]12C.Cl [TSBH, testosteronyl-4-dimethylaminobutyrate.HCl] | – | – | – | – | – | – | – | – | – | – | – | – | – | – | – | – | – | – | – | diffuses through human skin times faster than the drug (TS) itself [13]: ~60 times
CCN(CC)CCOC(=O)c1cccnc1Nc1cccc(C(F)(F)F)c1C [diethylaminoethyl 2-[[2-methyl-3-(trifluoromethyl)phenyl]amino]-3-pyridinecarboxylate.AcOH] | – | – | – | – | 1100 | > 450 | 1.7 | ~200 | 15.7 | 55 | shown analgesic activity nicely | none | 37.23±0.06 | 36.69±0.06 | 36.52±0.08 | 36.40±0.07 | ~2 | ~50 | approximately 200 times | solubility in water [1]: 400 mg/mL (≈ 1010 mM)
CCN(CC)CCNC(=O)c1ccccc1Nc1c(Cl)ccc(C)c1Cl [N-diethylaminoethyl 2-[(2,6-dichloro-3-methylphenyl)amino] benzoamide.AcOH] | – | – | – | – | – | 400 (≈ 1010 mM) | – | – | – | – | – | – | – | – | – | – | – | – | – | –
CCN(CC)CCOC(=O)c1ccccc1Nc1cccc(C)c1C [diethylaminoethyl 2-[(2,3-dimethylphenyl)amino]benzoate.AcOH] | – | – | – | – | 900 | > 400 | 2.1 | ~200 | 15.6 | 55 | shown analgesic activity nicely | none | 37.35±0.06 | 36.71±0.05 | 36.60±0.08 | 36.59±0.07 | ~2 | ~50 | approximately 200 times | –
Cc1cccc(Nc2ccccc2C(=O)O)c1C [mefenamic acid, 2-[(2,3-Dimethylphenyl)amino]benzoic acid] | < 100 | ~0.01 | 2-4 mg of fecal blood per gram of feces | 2 to 4 | – | – | – | – | – | – | – | – | – | – | – | – | – | – | – | LD50 ([14]; mouse, in vivo): 600 mg/kg
O=C(O)c1cccnc1Nc1cccc(C(F)(F)F)c1 [niflumic acid, 2-[[3-(trifluoromethyl)phenyl]amino]-3-pyridinecarboxylic acid] | < 100 | ~0.01 | 2-4 mg of fecal blood per gram of feces | 2 to 4 | – | – | – | – | – | – | – | – | – | – | – | – | – | – | – | LD50 [14, 15]: 650 mg/kg
O=C(O)c1ccccc1Nc1cccc(C(F)(F)F)c1 [flufenamic acid, 2-[[(3-trifluoromethyl)phenyl]amino]benzoic acid] | < 100 | ~0.01 | 2-4 mg of fecal blood per gram of feces | 2 to 4 | – | – | – | – | – | – | – | – | – | – | – | – | – | – | – | LD50 [14, 15]: 715 mg/kg
CCN(CC)CCOC(=O)c1ccccc1Nc1cccc(C(F)(F)F)c1 [diethylaminoethyl 2-[[(3-(trifluoromethyl)phenyl)amino]benzoate.AcOH] | – | – | – | – | 800 | > 400 | 2.2 | ~200 | 16.1 | 54 | shown analgesic activity nicely | none | 37.27±0.06 | 36.76±0.05 | 36.65±0.08 | 36.49±0.07 | ~2 | ~50 | approximately 200 times | –
Cc1c(Nc2ncccc2C(=O)O)cccc1C(F)(F)F [flunixin, 2-[[2-methyl-3-(trifluoromethyl)phenyl]amino]-3-pyridinecarboxylic acid] | < 100 | ~0.01 | 2-4 mg of fecal blood per gram of feces | 2 to 4 | – | – | – | – | – | – | – | – | – | – | – | – | – | – | – | –
CCN(CC)CCOC(=O)c1cccnc1Nc1cccc(C(F)(F)F)c1 [diethylaminoethyl 2-[[3-(trifluoromethyl)phenyl]amino]-3-pyridinecarboxylate.AcOH] | – | – | – | – | 750 | > 450 | 1.8 | ~200 | 15.2 | 57 | shown analgesic activity nicely | none | 37.25±0.07 | 36.82±0.06 | 36.70±0.05 | 36.50±0.08 | ~2 | ~50 | approximately 200 times | solubility in water [1]: 400 mg/mL (≈ 1050 mM)
